The values that follow come from patent US12172959B2, “Mono- or di-substituted indole derivatives as dengue viral replication inhibitors” (priority 2015, dated 2024).

One data set deals with DENV-2 16681 strain. In words: DENV-2 antiviral assay (eGFP fluorescence, Vero cells). It counts as cell-based, Dengue virus. The conditions noted are these: DENV-2 16681 eGFP, MOI 0.5, 3 days. How it is done: The antiviral activity of all the compounds of the invention was tested against the DENV-2 16681 strain which was labeled with enhanced green fluorescent protein (eGPF; Table 1). The culture medium consists of minimal essential medium supplemented with 2% of heat-inactivated fetal calf serum, 0.04% gentamycin (50 mg/mL) and 2 mM of L-glutamine. Vero cells, obtained from ECACC, were suspended in culture medium and 25 μL was added to 384-well plates (2500 cells/well), which already contain the antiviral compounds. Typically, these plates contain a 5-fold serial dilution of 9 dilution steps of the test compound at 200 times the final concentration in 100% DMSO (200 nL). […] Finally, each plate contains wells which are assigned as virus controls (containing cells and virus in the absence of compound), cell controls (containing cells in the absence of virus and compound) and medium controls (containing medium in the absence of cells, virus and compounds). To the wells assigned as medium control, 25 μL of culture medium was added instead of Vero cells. Once the cells were added to the plates, the plates were incubated for 30 minutes at room temperature to allow the cells to distribute evenly within the wells. Next, the plates were incubated in a fully humidified incubator (37° C., 5% CO2) until the next day. Then, DENV-2 strain 16681, labeled with eGFP, was added at a multiplicity of infection (MOI) of 0.5. Therefore, 15 μL of virus suspension was added to all the wells containing test compound and to the wells assigned as virus control. In parallel, 15 μL of culture medium was added to the medium and cell controls. Next, the plates were incubated for 3 days in a fully humidified incubator (37° C., 5% CO2). At the day of the read out, the eGFP fluorescence was measured using an automated fluorescence microscope at 488 nm (blue laser). Using an in-house LIMS system, inhibition dose response curves for each compound were calculated and the half maximal effective concentration (EC50) was determined. Therefore, the percent inhibition (I) for every test concentration is calculated using the following formula: I=100*(ST−SCC)/(SVC−SCC); ST, SCC and SVC are the amount of eGFP signal in the test compound, cell control and virus control wells, respectively. The EC50 represents the concentration of a compound at which the virus replication is inhibited with 50%, as measured by a 50% reduction of the eGFP fluorescent intensity compared to the virus control. The EC50 is calculated using linear interpolation.

In another data set the test system is DENV-1 strain TC974#666. The experiment in a line: Tetravalent RT-qPCR assay Protocol A, serotype 1. The conditions noted are these: Dengue virus, DENV1, 72 h, RT-qPCR serotype 1 TC974#666, Vero cells, day 3. The data set is classed as cell-based. How it is done: (§1) The antiviral activity of the compounds of the invention was tested against DENV-1 strain TC974#666 (NCPV; Table 6), DENV-2 strain 16681 (Table 7), DENV-3 strain H87 (NCPV; Table 8) and DENV-4 strains H241 (NCPV; Table 9A) and SG/06K2270DK1/2005 (Eden; Table 9B) in a RT-qPCR assay. Therefore, Vero cells were infected with either DENV-1, or -2, or -3, or -4 in the presence or absence of test compounds. At day 3 post-infection, the cells were lysed and cell lysates were used to prepare cDNA of both a viral target (the 3′UTR of DENV; Table 2) and a cellular reference gene (β-actin, Table 2). Subsequently, a duplex real time PCR was performed on a Lightcycler480 instrument. The generated Cp value is inversely proportional to the amount of RNA expression of these targets. Inhibition of DENV replication by test compound results in a shift of Cp's for the 3′UTR gene. On the other hand, if a test compound is toxic to the cells, a similar effect on β-actin expression will be observed. The comparative ΔΔCp method is used to calculate EC50, which is based on the relative gene expression of the target gene (3′UTR) normalized with the cellular housekeeping gene (β-actin).
(§2) The culture medium consisted of minimal essential medium supplemented with 2% of heat-inactivated fetal calf serum, 0.04% gentamycin (50 mg/mL) and 2 mM of L-glutamine. Vero cells, obtained from ECACC, were suspended in culture medium and 75 μL/well was added in 96-well plates (10000 cells/well), which already contain the antiviral compounds. […] In addition, each plate contains wells which are assigned as virus controls (containing cells and virus in the absence of compound) and cell controls (containing cells in the absence of virus and compound). Once the cells were added in the plates, the plates were incubated in a fully humidified incubator (37° C., 5% CO2) until the next day. Dengue viruses serotype-1, 2, 3 and 4 were diluted in order to obtain a Cp of ˜22-24 in the assay. Therefore, 25 μL of virus suspension was added to all the wells containing test compound and to the wells assigned as virus control. In parallel, 25 μL of culture medium was added to the cell controls. Next, the plates were incubated for 3 days in a fully humidified incubator (37° C., 5% CO2). After 3 days, the supernatant was removed from the wells and the cells were washed twice with ice-cold PBS (˜100 μL). The cell pellets within the 96-well plates were stored at −80° C. for at least 1 day. Next, RNA was extracted using the Cells-to-CT™ lysis kit, according to the manufacturer's guideline (Life Technologies). The cell lysates can be stored at −80° C. or immediately used in the reverse transcription step.
(§3) In preparation of the reverse transcription step, mix A (table 3A) was prepared and 7.57 μL/well was dispensed in a 96-well plate. After addition of 5 μL of the cell lysates, a five minute denaturation step at 75° C. was performed (table 3B). Afterwards, 7.43 μL of mix B was added (table 3C) and the reverse transcription step was initiated (table 3D) to generate cDNA.
(§4) Finally, a RT-qPCR mix was prepared, mix C (table 4A), and 22.02 μL/well was dispensed in 96-well LightCycler qPCR plates to which 3 μL of cDNA was added and the qPCR was performed according to the conditions in table 4B on a LightCycler 480.
(§5) Using the LightCycler software and an in-house LIMS system, dose response curves for each compound were calculated and the half maximal effective concentration (EC50) and the half maximal cytotoxic concentration (CC50) were determined.

The subject of another data set is DENV-2 strain 16681. The experiment in a line: Tetravalent RT-qPCR assay Protocol A, serotype 2. The conditions noted are these: Dengue virus, DENV2, 72 h; Protocol A, RT-qPCR serotype 2 16681, Vero cells, day 3; read-out: EC50. It counts as cell-based. How it is done: as §1, §2, §3, §4, §5
For orientation: In qPCR the cycle at which signal appears reflects the starting amount.

For the next data set, the system named is DENV-3 strain H87. In words: Tetravalent RT-qPCR assay Protocol A, serotype 3. The data set is classed as cell-based. The conditions noted are these: Dengue virus, DENV3, 72 h, RT-qPCR serotype 3 H87, Vero cells, day 3. How it is done:
as §1, §2, §3, §4, §5

For the next data set, the system named is DENV-4 strain H241. The experiment in a line: Tetravalent RT-qPCR assay Protocol A, serotype 4 H241. It counts as cell-based. The settings on record: Dengue virus. How it is done:
as §1, §2, §3, §4, §5

Data set [1] in a line: in vitro. The settings on record: African green monkey, CC50. It counts as cell-based. As to the method:
as §1, §2, §5

The subject of data set [2] is Vero cells. In words: in vitro. The data set is classed as cell-based. The settings on record: African green monkey, 3 days. As to the method: as §1, §2, §5
The test system of data set [3] is Vero cells. The settings on record: African green monkey.
For data set [4], the system named is DENV-4 strain SG/06K2270DK1/2005 (Eden). The experiment in a line: Tetravalent RT-qPCR assay Protocol A, serotype 4 EDEN. It counts as cell-based. The conditions noted are these: Dengue virus, DENV4, Vero, 72 h. How it is done:
as §1, §2, §3, §4, §5

Data set [5] is described as follows: in vitro. The settings on record: African green monkey.

pEC50: −log10 of the molar value. Where two headings read alike, the source gives them in different places.

One may read the pEC50 as the negative decadic logarithm of the EC50, by convention in mol/L. Take `COc1cc(NC(C(=O)c2c[nH]c3cc(OC)c(OC(F)(F)F)cc23)c2ccc(Cl)cc2OC)cc(S(C)(=O)=O)c1` (single isomer, unassigned) [Compound 10A, 2-(4-chloro-2-methoxyphenyl)-2-((3-methoxy-5-(methylsulfonyl)phenyl)amino)-1-(6-methoxy-5-(trifluoromethoxy)-1H-indol-3-yl)ethanone]: the pEC50 is 9.92 in the data set on DENV-2 16681 strain; 9.57 in the data set on DENV-1 strain TC974#666; 10.24 with DENV-2 strain 16681; 8.43 in the data set with DENV-3 strain H87; 7.96 in the data set on DENV-4 strain H241 (DENV4, Vero, 72 h). Moreover, the CC50 at 3 days in the data set “in vitro [1]” turned out to be 1.6 µM. Besides, the CC50 in the data set on Vero cells [2] was determined as 1000 nM; in the data set with Vero cells [3], 2600 nM.

As for `COc1cc(NC(C(=O)c2c[nH]c3cc(OC)ccc23)c2ccc(Cl)cc2OC)cc(S(C)(=O)=O)c1` (single isomer, unassigned) [Compound 3A, 2-(4-chloro-2-methoxyphenyl)-1-(6-methoxy-1H-indol-3-yl)-2-((3-methoxy-5-(methylsulfonyl)phenyl)amino)ethanone], the pEC50 was 9.60 with DENV-2 16681 strain; 8.38 in the data set on DENV-1 strain TC974#666; 9.52 in the data set with DENV-2 strain 16681; 7.32 in the data set on DENV-3 strain H87; 6.96 in the data set with DENV-4 strain H241 (DENV4, 72 h, Protocol A, RT-qPCR serotype 4 H241, Vero cells, day 3, read-out: EC50); 8.52 in data set [4]. The molecule also yielded a CC50 at 3 days in “in vitro [1]” of 5.5 µM. Moreover, the CC50 in “in vitro [5]” was determined as 7.2 µM.
